What was measured:
carragheenin edema = experiment: acute carragheenin edema inhibition (anti-inflammatory effect); format: in vivo, male rats
Procedure: The edema was induced by subcutaneous injection of 1% carraheenin suspension in saline to the hind paws of male rats weighing 150 to 180 g. Each sample was orally given at the dosage of 100 mg/kg just before the inoculation of carragheenin.

in vivo = details: mouse, po
Procedure: Each sample was dissolved in olive oil or dispersed in 1% Tween 20 aqueous solution.

platelet aggregation = experiment: blood platelet aggregation inhibition, collagen as inducer; format: cell-based; details: 10^-4 mole, rabbit PRP
Text: Blood platelet aggregation inhibiting effect
Male rabbits (Japan original white strain 3.3 to 3.6 kg) were anesthetized with Thiopental sodium and blood was sampled from the carotid artery.

[1] = tested on: painful stretchings induced by acetic acid; experiment: acetic acid induced stretching (analgesic effect); details: 100 mg/kg oral, 0.7% acetic acid i.p., mice
Procedure: Each sample was orally administrated in the dosage of 100 mg/kg before injection of acetic acid.

[2] = 100 mg/kg oral, carragheenin edema, rats, Table 2

CCCCc1ccc(C(=O)c2ccccc2F)cc1 [Active ingredient No. 8, 4-n-butyl-2'-fluorobenzophenone]
anti-inflammatory effect, inhibition rate (ED50), in words (carragheenin edema): especially high inhibition rate

CCCCCc1ccc(C(=O)c2ccccc2F)cc1 [Active ingredient No. 9, 2-Fluoro-4'-n-amyl-benzophenone]
anti-inflammatory effect, inhibition rate (ED50), in words (carragheenin edema): especially high inhibition rate

Cc1cc(C)c(C(=O)c2ccccc2F)c(C)c1 [Active ingredient No. 11, 2-Fluoro-2',4',6'-trimethyl-benzophenone]
anti-inflammatory effect, inhibition rate (ED50), in words (carragheenin edema): especially high inhibition rate

O=C(c1ccccc1)c1ccccc1F [Active ingredient No. 15, 2-fluorobenzophenone]
anti-inflammatory effect, inhibition rate (ED50), in words (carragheenin edema): especially high inhibition rate

CCCCc1ccc(C(=O)c2ccccc2)cc1 [Active ingredient No. 19, 4-n-butyl benzophenone]
anti-inflammatory effect, inhibition rate (ED50), in words (carragheenin edema): especially high inhibition rate

CCCc1ccc(C(=O)c2ccccc2F)cc1 [compound 7]
LD50 at 72 h (in vivo): 1500 mg/kg | Blood platelet agg. inh. (percentage inhibition of platelet aggregation) (platelet aggregation): 23.0% | ED50 (carragheenin edema; Rattus norvegicus, oral, carragheenin edema, rats, Table 2, read-out: 50% inhibition rate ED50): 78 mg/kg | Analgesic (percentage diminution of times of painful stretchings) [1]: 15.0%

CCCCCCCc1ccc(C(=O)c2ccccc2)cc1 [compound 25]
LD50 at 72 h (in vivo): 8000 mg/kg | Blood platelet agg. inh. (percentage inhibition of platelet aggregation) (platelet aggregation): 7.8% | Analgesic (percentage diminution of times of painful stretchings) [1]: 48.6%

CCCCCCCCc1ccc(C(=O)c2ccccc2)cc1 [compound 26]
LD50 at 72 h (in vivo): 10000 mg/kg | Blood platelet agg. inh. (percentage inhibition of platelet aggregation) (platelet aggregation): 3.1% | Analgesic (percentage diminution of times of painful stretchings) [1]: 35.9%

Cc1ccc(C(=O)c2ccccc2)c(C)c1C [compound 31]
LD50 at 72 h (in vivo): 1500 mg/kg | Blood platelet agg. inh. (percentage inhibition of platelet aggregation) (platelet aggregation): 18.2% | Analgesic (percentage diminution of times of painful stretchings) [1]: 9.5%

CCc1ccc(C(=O)c2ccc(C)cc2)cc1 [compound 33]
LD50 at 72 h (in vivo): 3000 mg/kg | Blood platelet agg. inh. (percentage inhibition of platelet aggregation) (platelet aggregation): 20.5% | Analgesic (percentage diminution of times of painful stretchings) [1]: 15.5%

CCCc1ccc(C(=O)c2ccc(C)cc2)cc1 [compound 34]
LD50 at 72 h (in vivo): 5000 mg/kg | Blood platelet agg. inh. (percentage inhibition of platelet aggregation) (platelet aggregation): 16.4% | Analgesic (percentage diminution of times of painful stretchings) [1]: 12.1%

CCCCCc1ccc(C(=O)c2ccccc2C)cc1 [compound 41]
LD50 at 72 h (in vivo): 3000 mg/kg | Blood platelet agg. inh. (percentage inhibition of platelet aggregation) (platelet aggregation): 14.4% | Analgesic (percentage diminution of times of painful stretchings) [1]: 14.6%

CCCCOc1ccc(C(=O)c2ccccc2)cc1 [compound 42]
LD50 at 72 h (in vivo): 3000 mg/kg | Blood platelet agg. inh. (percentage inhibition of platelet aggregation) (platelet aggregation): 4.4% | Analgesic (percentage diminution of times of painful stretchings) [1]: 26.8%

CCCc1ccc(C(=O)Cc2ccccc2)cc1 [compound 49]
LD50 at 72 h (in vivo): 8000 mg/kg | Blood platelet agg. inh. (percentage inhibition of platelet aggregation) (platelet aggregation): 28.5% | Analgesic (percentage diminution of times of painful stretchings) [1]: 18.2%

CCCCCCc1ccc(C(=O)C(=O)c2ccccc2)cc1 [compound 56]
LD50 at 72 h (in vivo): 10000 mg/kg | Blood platelet agg. inh. (percentage inhibition of platelet aggregation) (platelet aggregation): 20.3% | Analgesic (percentage diminution of times of painful stretchings) [1]: 20.5%

CCCCc1ccc(C(=O)c2ccc(Cl)cc2)cc1 [compound 64]
LD50 at 72 h (in vivo): 3000 mg/kg | Blood platelet agg. inh. (percentage inhibition of platelet aggregation) (platelet aggregation): 28.5% | Analgesic (percentage diminution of times of painful stretchings) [1]: 6.6%

CCc1ccc(C(=O)c2ccccc2)cc1 [compound 66]
LD50 at 72 h (in vivo): 2000 mg/kg | Blood platelet agg. inh. (percentage inhibition of platelet aggregation) (platelet aggregation): 20.7% | Analgesic (percentage diminution of times of painful stretchings) [1]: 15.7%

CC(C)Cc1ccc(C(=O)c2ccccc2)cc1 [compound 67]
LD50 at 72 h (in vivo): 2000 mg/kg | Blood platelet agg. inh. (percentage inhibition of platelet aggregation) (platelet aggregation): 18.5% | Analgesic (percentage diminution of times of painful stretchings) [1]: 19.1%

Cc1ccc(C(=O)c2ccccc2)cc1C [compound 72]
LD50 at 72 h (in vivo): 1000 mg/kg | Blood platelet agg. inh. (percentage inhibition of platelet aggregation) (platelet aggregation): 28.7% | Analgesic (percentage diminution of times of painful stretchings) [1]: 23.4%

COc1ccc(C(=O)c2ccccc2)c(OC)c1 [compound 74]
LD50 at 72 h (in vivo): 5000 mg/kg | Blood platelet agg. inh. (percentage inhibition of platelet aggregation) (platelet aggregation): 18.5% | Analgesic (percentage diminution of times of painful stretchings) [1]: 24.2%

COc1ccc(OC)c(C(=O)c2ccccc2)c1 [compound 75]
LD50 at 72 h (in vivo): 5000 mg/kg | Blood platelet agg. inh. (percentage inhibition of platelet aggregation) (platelet aggregation): 30.7% | Analgesic (percentage diminution of times of painful stretchings) [1]: 22.0%

COc1cc(OC)c(C(=O)c2ccccc2)c(OC)c1 [compound 76]
LD50 at 72 h (in vivo): 2500 mg/kg | Blood platelet agg. inh. (percentage inhibition of platelet aggregation) (platelet aggregation): 16.2% | Analgesic (percentage diminution of times of painful stretchings) [1]: 13.9%

Cc1cc(C)c(C(=O)c2ccccc2)c(C)c1C [compound 79]
LD50 at 72 h (in vivo): 1000 mg/kg | Blood platelet agg. inh. (percentage inhibition of platelet aggregation) (platelet aggregation): 26.8% | Analgesic (percentage diminution of times of painful stretchings) [1]: 20.8%

CCCCCCCc1ccc(C(=O)c2ccc(C)cc2)cc1 [compound 85]
Blood platelet agg. inh. (percentage inhibition of platelet aggregation) (platelet aggregation): 18.7% | Anti-inf. (edema inhibition rate) (carragheenin edema; [2]): 18.7%

CCCCCc1ccc(C(=O)c2cccc(C)c2)cc1 [compound 89]
LD50 at 72 h (in vivo): 10000 mg/kg | Blood platelet agg. inh. (percentage inhibition of platelet aggregation) (platelet aggregation): 22.6% | Analgesic (percentage diminution of times of painful stretchings) [1]: 4.3%

CCCCOc1ccc(C(=O)c2c(C)cc(C)cc2C)cc1 [compound 94]
LD50 at 72 h (in vivo): 500 mg/kg | Blood platelet agg. inh. (percentage inhibition of platelet aggregation) (platelet aggregation): 27.9% | Analgesic (percentage diminution of times of painful stretchings) [1]: 15.8%

CCCCc1ccc(C(=O)c2ccc(CCC)cc2)cc1 [compound 98]
LD50 at 72 h (in vivo): 4000 mg/kg | Blood platelet agg. inh. (percentage inhibition of platelet aggregation) (platelet aggregation): 28.3% | Analgesic (percentage diminution of times of painful stretchings) [1]: 16.4%

CCCCCc1ccc(C(=O)c2ccc(CCC)cc2)cc1 [compound 99]
LD50 at 72 h (in vivo): 5000 mg/kg | Blood platelet agg. inh. (percentage inhibition of platelet aggregation) (platelet aggregation): 29.5% | Analgesic (percentage diminution of times of painful stretchings) [1]: 15.5%

CCCCCCc1ccc(C(=O)c2c(C)cc(C)cc2C)cc1 [compound 103]
LD50 at 72 h (in vivo): 500 mg/kg | Blood platelet agg. inh. (percentage inhibition of platelet aggregation) (platelet aggregation): 29.5% | Analgesic (percentage diminution of times of painful stretchings) [1]: 14.2%

CCCc1ccc(C(=O)c2ccc(O)cc2)cc1 [compound 104]
LD50 at 72 h (in vivo): 3000 mg/kg | Blood platelet agg. inh. (percentage inhibition of platelet aggregation) (platelet aggregation): 25.3% | Analgesic (percentage diminution of times of painful stretchings) [1]: 13.2%

CCCCCc1ccc(C(=O)c2ccc(O)cc2)cc1 [compound 105]
LD50 at 72 h (in vivo): 4000 mg/kg | Blood platelet agg. inh. (percentage inhibition of platelet aggregation) (platelet aggregation): 24.1% | Analgesic (percentage diminution of times of painful stretchings) [1]: 14.1%

CCc1ccc(C(=O)c2ccc(CC)cc2)cc1 [compound 106]
LD50 at 72 h (in vivo): 1000 mg/kg | Blood platelet agg. inh. (percentage inhibition of platelet aggregation) (platelet aggregation): 20.3% | Analgesic (percentage diminution of times of painful stretchings) [1]: 7.3%

CCc1ccc(C(=O)c2ccc(OC)cc2)cc1 [compound 107]
Blood platelet agg. inh. (percentage inhibition of platelet aggregation) (platelet aggregation): 20.3% | Anti-inf. (edema inhibition rate) (carragheenin edema; [2]): 20.3%

O=C(c1ccccc1)c1ccccc1C(=O)c1ccccc1 [compound 113]
LD50 at 72 h (in vivo): 4000 mg/kg | Blood platelet agg. inh. (percentage inhibition of platelet aggregation) (platelet aggregation): 25.8% | Analgesic (percentage diminution of times of painful stretchings) [1]: 14.5%

O=C(c1ccc(F)cc1)c1ccc(F)cc1 [compound 114]
LD50 at 72 h (in vivo): 2000 mg/kg | Blood platelet agg. inh. (percentage inhibition of platelet aggregation) (platelet aggregation): 26.8% | Analgesic (percentage diminution of times of painful stretchings) [1]: 18.3%

CCCC(C)c1ccc(C(=O)c2ccccc2F)cc1 (centres unmarked) [compound 121]
LD50 at 72 h (in vivo): 3000 mg/kg | inhibition in vivo at 100 mg/kg (carragheenin edema; Rattus norvegicus, Table 2', 100 mg/kg oral, carragheenin edema, rats, read-out: Anti-inf.): 64.5%

CCCCCCCCc1ccc(C(=O)c2cccc(I)c2)cc1 [compound 161]
LD50 at 72 h (in vivo): 5000 mg/kg | Anti-inf. (carragheenin edema; Table 2', 100 mg/kg oral, carragheenin edema, rats): 20.9

Reference: patent US4124726A, “Anti-inflammatory agent of benzoyl derivative” (priority 1976, dated 1978)
